From US12559496B2, “Imidazopyrimidines as modulators of IL-17” (Janssen Pharmaceutica NV, priority 2020, dated 2026)
pIC50: −log10 of the molar value.

Experiments:
[1] = seven of nine patients with moderate-to-severe HS, open-label pilot-trial (Prussick et al. 2019); cited from earlier work
[2] = biological target: IL-17A(FLAG-Tagged): IL-17RA(His-Tagged) (Homo sapiens, UniProt Q16552, K93Q); experiment: IL-17A(FLAG-Tagged): IL-17RA(His-Tagged) Binding Disruption Eu-HTRF Assay; settings: disruption of IL-17A/IL-17RA binding; simple average if tested more than once
Procedure, shortened: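 Compound (22-point 2-fold series) was preincubated 1 h at rt with FLAG-IL-17A, then His-IL-17RA, Eu-anti-FLAG and D2-anti-His were added in PBS/0.01% Triton X-100 with 200 mM KF for 2 h at rt. The ratio of 665 and 620 nm intensities versus concentration was fitted to one-site competition for IC50.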

[3] = test system: IL-17A-induced G-CSF production in human normal keratinocytes (NHK); experiment: NHK Assay: IL-17A-induced G-CSF production in human normal keratinocytes; assay type: cell-based; settings: 24 h, IL-17A 5 ng/mL, 5% FBS, simple average if tested more than once
Procedure, shortened: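 Adult normal human keratinocytes treated 24 h at 37 °C with IL-17A (5 ng/mL final) pre-incubated 1 h at rt with titrated compound; 0.2% DMSO, 5% FBS. G-CSF in supernatant measured by HTRF against a standard curve to give IC50; viability checked by CellTiter-Glo.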

Chain of UniProt Q16552 (Q16552 with tags, fused parts or gaps K93Q): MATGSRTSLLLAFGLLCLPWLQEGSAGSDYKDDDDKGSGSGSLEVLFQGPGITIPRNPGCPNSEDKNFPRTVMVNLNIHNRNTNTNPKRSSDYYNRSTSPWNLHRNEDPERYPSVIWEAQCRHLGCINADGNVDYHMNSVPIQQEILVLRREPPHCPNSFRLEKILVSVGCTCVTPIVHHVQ

Row | Molecule | pIC50 [2] | patients achieving HiSCR [1] | pIC50 ([3]; Homo sapiens, Keratinocyte) | pIC50 [3]
1 | secukinumab | – | 78% | – | –
2 | O=C(CCC(F)(F)F)N[C@@H](c1ccn2cc([C@@H](NC(=O)c3ncnn3CC3CC3)C3CCC(F)(F)CC3)nc2n1)C1CC1 [Example 32, N—((S)-(7-((R)-Cyclopropyl(4,4,4-trifluorobutanamido)methyl)imidazo[1,2-a]pyrimidin-2-yl)(4,4-difluorocyclohexyl)methyl)-1-(cyclopropylmethyl)-1H-1,2,4-triazole-5-carboxamide] | 6.77 | – | 6.28 | –
3 | O=C(CC1CC1(F)F)N[C@@H](c1ccn2cc([C@@H](NC(=O)c3ncnn3CC3CC3)C3CCC(F)(F)CC3)nc2n1)C1CC1 (single isomer, unassigned) [Example 55, N—((S)-(7-((R)-Cyclopropyl(2-((S*)-2,2-difluorocyclopropyl)acetamido)methyl)imidazo[1,2-a]pyrimidin-2-yl)(4,4-difluorocyclohexyl)methyl)-1-(cyclopropylmethyl)-1H-1,2,4-triazole-5-carboxamide] | 6.24 | – | 5.96 | –
4 | Cc1nonc1C(=O)N[C@H](c1cn2ccc([C@H](NC(=O)CC3CC3(F)F)C3CC3)nc2n1)C1CCC(F)(F)CC1 (single isomer, unassigned) [Example 52, N—((S)-(7-((R)-Cyclopropyl(2-((R*)-2,2-difluorocyclopropyl)acetamido)methyl)imidazo[1,2-a]pyrimidin-2-yl)(4,4-difluorocyclohexyl)methyl)-4-methyl-1,2,5-oxadiazole-3-carboxamide] | 6.17 | – | – | 5.55
5 | O=C(CCC(F)(F)F)N[C@@H](c1ccn2cc([C@@H](NC(=O)c3conc3CCC(F)(F)F)C3CCC(F)(F)CC3)nc2n1)C1CC1 [Example 30, N—((S)-(7-((R)-Cyclopropyl(4,4,4-trifluorobutanamido)methyl)imidazo[1,2-a]pyrimidin-2-yl)(4,4-difluorocyclohexyl)methyl)-3-(3,3,3-trifluoropropyl)isoxazole-4-carboxamide] | 6.96 | – | 7.13 | –
6 | O=C(CC1CC1(F)F)N[C@@H](c1ccn2cc([C@@H](NC(=O)c3conc3C(F)(F)F)C3CCC(F)(F)CC3)nc2n1)C1CC1 (single isomer, unassigned) [Example 58, N—((S)-(7-((R)-Cyclopropyl(2-((R*)-2,2-difluorocyclopropyl)acetamido)methyl)imidazo[1,2-a]pyrimidin-2-yl)(4,4-difluorocyclohexyl)methyl)-3-(trifluoromethyl)isoxazole-4-carboxamide] | 6.47 | – | – | 5.66
7 | CC(C)n1nccc1C(=O)N[C@H](c1cn2ccc(C(NC(=O)CCC(F)(F)F)C3CC3)nc2n1)C1CCC(F)(F)CC1 (single isomer, unassigned) [Example 46, N—((S)-(7-((S*)-Cyclopropyl(4,4,4-trifluorobutanamido)methyl)imidazo[1,2-a]pyrimidin-2-yl)(4,4-difluorocyclohexyl)methyl)-1-isopropyl-1H-pyrazole-5-carboxamide] | 5.59 | – | – | 5.59
8 | CC(CC(=O)N[C@@H](c1ccn2cc([C@@H](NC(=O)[C@@H]3C[C@H]3C(F)(F)F)C3CCC(F)(F)CC3)nc2n1)C1CC1)C(F)(F)F (single isomer, unassigned) [Example 5] | 6.15 | – | 6.02 | –

Further molecules by rising pIC50 [2], results first:

Row | pIC50 [2] | Molecule | patients achieving HiSCR [1] | pIC50 ([3]; Homo sapiens, Keratinocyte) | pIC50 [3]
9 | 5.42 | O=C(CC1CC(F)(F)C1)N[C@H](c1ccn2cc([C@@H](NC(=O)c3conc3C3CC3)C3CCC(F)(F)CC3)nc2n1)C1CC1 [Example 27, 3-Cyclopropyl-N—((S)-(7-((S)-cyclopropyl(2-(3,3-difluorocyclobutyl)acetamido)methyl)imidazo[1,2-a]pyrimidin-2-yl)(4,4-difluorocyclohexyl)methyl)isoxazole-4-carboxamide] | – | 5.59 | –
10 | 6.33 | CC(CC(=O)N[C@@H](c1ccn2cc([C@@H](NC(=O)c3ncnn3CC3CC3)C3CCC(F)(F)CC3)nc2n1)C1CC1)C(F)(F)F (single isomer, unassigned) [Example 20, N—((S)-(7-((R)-Cyclopropyl((R*)-4,4,4-trifluoro-3-methylbutanamido)methyl)imidazo[1,2-a]pyrimidin-2-yl)(4,4-difluorocyclohexyl)methyl)-1-(cyclopropylmethyl)-1H-1,2,4-triazole-5-carboxamide] | – | – | 5.55
11 | 6.34 | Cc1conc1C(=O)N[C@H](c1cn2ccc([C@H](NC(=O)CC3CC3(F)F)C3CC3)nc2n1)C1CCC(F)(F)CC1 (single isomer, unassigned) [Example 54, N—((S)-(7-((R)-Cyclopropyl(2-((R*)-2,2-difluorocyclopropyl)acetamido)methyl)imidazo[1,2-a]pyrimidin-2-yl)(4,4-difluorocyclohexyl)methyl)-4-methylisoxazole-3-carboxamide] | – | – | 5.35
12 | 6.44 | Cc1nonc1C(=O)N[C@H](c1cn2ccc([C@H](NC(=O)CC3CC3(F)F)C3CC3)nc2n1)C1CCC(F)(F)CC1 (single isomer, unassigned) [Example 51, N—((S)-(7-((R)-Cyclopropyl(2-((S*)-2,2-difluorocyclopropyl)acetamido)methyl)imidazo[1,2-a]pyrimidin-2-yl)(4,4-difluorocyclohexyl)methyl)-4-methyl-1,2,5-oxadiazole-3-carboxamide] | – | 5.70 | –
13 | 6.54 | O=C(CC1CC(F)(F)C1)N[C@@H](c1ccn2cc([C@@H](NC(=O)c3ncnn3CC3CC3)C3CCC(F)(F)CC3)nc2n1)C1CC1 [Example 15, N—((S)-(7-((R)-Cyclopropyl(2-(3,3-difluorocyclobutyl)acetamido)methyl)imidazo[1,2-a]pyrimidin-2-yl)(4,4-difluorocyclohexyl)methyl)-1-(cyclopropylmethyl)-1H-1,2,4-triazole-5-carboxamide] | – | 5.85 | –
14 | 6.89 | Cc1nonc1C(=O)N[C@H](c1cn2ccc([C@H](NC(=O)CCC(F)(F)F)C3CC3)nc2n1)C1CCC(F)(F)CC1 [Example 23, N—((S)-(7-((R)-Cyclopropyl(4,4,4-trifluorobutanamido)methyl)imidazo[1,2-a]pyrimidin-2-yl)(4,4-difluorocyclohexyl)methyl)-4-methyl-1,2,5-oxadiazole-3-carboxamide] | – | 6.28 | –
